In ChEMBL document CHEMBL3885881, “DrugMatrix”:

Columns and labels:
[1] = organism: Rattus norvegicus; assay: DrugMatrix - Regimen: Daily Repeat; type: toxicity, organism-based, Sprague-Dawley; set-up: regimen Daily Repeat, gender Male, age 6-8 weeks; settings: in vivo, po, 1200 mg/kg, route oral GAVAGE, dose level High, vehicle .5 % CMC; for ABSOLUTE BASOPHIL / ABSOLUTE EOSINOPHIL / ABSOLUTE LYMPHOCYTE / ABSOLUTE MONOCYTE / ABSOLUTE SEGMENTED NEUTROPHIL / BASOPHIL / EOSINOPHIL / ERYTHROCYTE COUNT / HEMATOCRIT / HEMOGLOBIN / LEUKOCYTE COUNT / LYMPHOCYTE / MEAN CORPUSCULAR HEMOGLOBIN / MEAN CORPUSCULAR HEMOGLOBIN CONCENTRATION / MEAN CORPUSCULAR VOLUME / MONOCYTE / NEUTROPHIL / NUCLEATED RED BLOOD CELLS / PLATELET COUNT: tissue Blood; for ALANINE AMINOTRANSFERASE / ALBUMIN / ALKALINE PHOSPHATASE / ASPARTATE AMINOTRANSFERASE / BLOOD UREA NITROGEN / CARBON DIOXIDE / CHLORIDE / CHOLESTEROL / CREATININE / GLUCOSE / LACTATE DEHYDROGENASE / LIPASE / PHOSPHORUS / POTASSIUM / SODIUM / TOTAL BILIRUBIN / TOTAL PROTEIN / URIC ACID: tissue Plasma
[2] = organism: Rattus norvegicus; type: toxicity, organism-based, Sprague-Dawley; settings: in vivo, po, 1200 mg/kg, 24 h, route oral GAVAGE, dose level High, time 1 day, vehicle .5 % CMC
Description: DrugMatrix - Regimen: Single

## Nc1ccc(Cl)cc1[N+](=O)[O-] [4-CHLORO-2-NITROANILINE]
[1]; 72 h, time 3 day
  ABSOLUTE BASOPHIL: 0 CELLS/uL
  ABSOLUTE EOSINOPHIL: 170.33 CELLS/uL
  ABSOLUTE LYMPHOCYTE: 8812.67 CELLS/uL
  ABSOLUTE MONOCYTE: 210.67 CELLS/uL
  ABSOLUTE SEGMENTED NEUTROPHIL: 673 CELLS/uL
  BASOPHIL: 0%
  EOSINOPHIL: 1.67%
  ERYTHROCYTE COUNT: 6.64 x10E6/uL
  HEMATOCRIT: 39.73%
  HEMOGLOBIN: 14.83 G/DL
  LEUKOCYTE COUNT: 9.87 x10E3/uL
  LYMPHOCYTE: 89%
  MEAN CORPUSCULAR HEMOGLOBIN: 22.33 pg
  MEAN CORPUSCULAR HEMOGLOBIN CONCENTRATION: 37.37 G/DL
  MEAN CORPUSCULAR VOLUME: 59.8 fL
  MONOCYTE: 2.33%
  NEUTROPHIL: 7%
  NUCLEATED RED BLOOD CELLS: 0.33 /100WBC
  PLATELET COUNT: 873.33 x10E3/uL
  ALANINE AMINOTRANSFERASE: 82.67 u/L
  ALBUMIN: 4.53 G/DL
  ALKALINE PHOSPHATASE: 464.33 u/L
  ASPARTATE AMINOTRANSFERASE: 89.67 u/L
  BLOOD UREA NITROGEN: 17 mg/dL
  CARBON DIOXIDE: 36.67 mmol/L
  CHLORIDE: 100 MEQ/L
  CHOLESTEROL: 91.67 mg/dL
  CREATININE: 0.24 mg/dL
  GLUCOSE: 126.33 mg/dL
  LACTATE DEHYDROGENASE: 78.67 u/L
  LIPASE: 10 u/L
  PHOSPHORUS: 11.83 mg/dL
  POTASSIUM: 6.36 MEQ/L
  SODIUM: 147.57 MEQ/L
  TOTAL BILIRUBIN: 0.23 mg/dL
  TOTAL PROTEIN: 6.73 G/DL
  URIC ACID: 1.37 mg/dL
[1]; 120 h, time 5 day
  ABSOLUTE BASOPHIL: 0 CELLS/uL
  ABSOLUTE EOSINOPHIL: 100.67 CELLS/uL
  ABSOLUTE LYMPHOCYTE: 9384 CELLS/uL
  ABSOLUTE MONOCYTE: 183 CELLS/uL
  ABSOLUTE SEGMENTED NEUTROPHIL: 1099 CELLS/uL
  BASOPHIL: 0%
  EOSINOPHIL: 1%
  ERYTHROCYTE COUNT: 6.3 x10E6/uL
  HEMATOCRIT: 37.27%
  HEMOGLOBIN: 13.47 G/DL
  LEUKOCYTE COUNT: 10.77 x10E3/uL
  LYMPHOCYTE: 87%
  MEAN CORPUSCULAR HEMOGLOBIN: 21.43 pg
  MEAN CORPUSCULAR HEMOGLOBIN CONCENTRATION: 36.17 G/DL
  MEAN CORPUSCULAR VOLUME: 59.17 fL
  MONOCYTE: 1.67%
  NEUTROPHIL: 10.33%
  NUCLEATED RED BLOOD CELLS: 0 /100WBC
  PLATELET COUNT: 947 x10E3/uL
  ALANINE AMINOTRANSFERASE: 49 u/L
  ALBUMIN: 4.1 G/DL
  ALKALINE PHOSPHATASE: 387 u/L
  ASPARTATE AMINOTRANSFERASE: 69 u/L
  BLOOD UREA NITROGEN: 12.67 mg/dL
  CARBON DIOXIDE: 31 mmol/L
  CHLORIDE: 102.67 MEQ/L
  CHOLESTEROL: 97.33 mg/dL
  CREATININE: 0.18 mg/dL
  GLUCOSE: 126.33 mg/dL
  LACTATE DEHYDROGENASE: 87 u/L
  LIPASE: 10 u/L
  PHOSPHORUS: 12.2 mg/dL
  POTASSIUM: 7.1 MEQ/L
  SODIUM: 147.03 MEQ/L
  TOTAL BILIRUBIN: 0.23 mg/dL
  TOTAL PROTEIN: 6.2 G/DL
  URIC ACID: 1.5 mg/dL
[1]; […], time 14 day
  ABSOLUTE BASOPHIL: 0 CELLS/uL
  ABSOLUTE EOSINOPHIL: 305.4 CELLS/uL
  ABSOLUTE LYMPHOCYTE: 16745.4 CELLS/uL
  ABSOLUTE MONOCYTE: 700 CELLS/uL
  ABSOLUTE SEGMENTED NEUTROPHIL: 2009.2 CELLS/uL
  BASOPHIL: 0%
  EOSINOPHIL: 1.6%
  ERYTHROCYTE COUNT: 6.12 x10E6/uL
  HEMATOCRIT: 34.88%
  HEMOGLOBIN: 12.64 G/DL
  LEUKOCYTE COUNT: 19.76 x10E3/uL
  LYMPHOCYTE: 84.4%
  MEAN CORPUSCULAR HEMOGLOBIN: 20.64 pg
  MEAN CORPUSCULAR HEMOGLOBIN CONCENTRATION: 36.24 G/DL
  MEAN CORPUSCULAR VOLUME: 56.98 fL
  MONOCYTE: 3.4%
  NEUTROPHIL: 10.6%
  NUCLEATED RED BLOOD CELLS: 0 /100WBC
  PLATELET COUNT: 1103.4 x10E3/uL
  ALANINE AMINOTRANSFERASE: 58.8 u/L
  ALBUMIN: 4.18 G/DL
  ALKALINE PHOSPHATASE: 347.4 u/L
  ASPARTATE AMINOTRANSFERASE: 113.2 u/L
  BLOOD UREA NITROGEN: 20 mg/dL
  CARBON DIOXIDE: 28 mmol/L
  CHLORIDE: 100.8 MEQ/L
  CHOLESTEROL: 80.8 mg/dL
  CREATININE: 0.27 mg/dL
  GLUCOSE: 164.4 mg/dL
  LACTATE DEHYDROGENASE: 192 u/L
  LIPASE: 10.8 u/L
  PHOSPHORUS: 12.48 mg/dL
  POTASSIUM: 6.05 MEQ/L
  SODIUM: 146.34 MEQ/L
  TOTAL BILIRUBIN: 0.3 mg/dL
  TOTAL PROTEIN: 6.3 G/DL
  URIC ACID: 1.32 mg/dL
[2]; tissue Blood
  ABSOLUTE EOSINOPHIL: 51.67 CELLS/uL
  ABSOLUTE LYMPHOCYTE: 11963.33 CELLS/uL
  ABSOLUTE MONOCYTE: 476.67 CELLS/uL
  ABSOLUTE SEGMENTED NEUTROPHIL: 1508.33 CELLS/uL
  BASOPHIL: 0%
  EOSINOPHIL: 0.33%
  ERYTHROCYTE COUNT: 5.85 x10E6/uL
  HEMATOCRIT: 35.7%
  HEMOGLOBIN: 12.97 G/DL
  LEUKOCYTE COUNT: 14 x10E3/uL
  LYMPHOCYTE: 85.67%
  MEAN CORPUSCULAR HEMOGLOBIN: 22.17 pg
  MEAN CORPUSCULAR HEMOGLOBIN CONCENTRATION: 36.3 G/DL
  MEAN CORPUSCULAR VOLUME: 61.07 fL
  MONOCYTE: 3.33%
  NEUTROPHIL: 10.67%
  NUCLEATED RED BLOOD CELLS: 0 /100WBC
  PLATELET COUNT: 1137 x10E3/uL
[2]; tissue Plasma
  ALANINE AMINOTRANSFERASE: 71.67 u/L
  ALBUMIN: 4.2 G/DL
  ALKALINE PHOSPHATASE: 484 u/L
  ASPARTATE AMINOTRANSFERASE: 114 u/L
  BLOOD UREA NITROGEN: 15 mg/dL
  CARBON DIOXIDE: 23.33 mmol/L
  CHLORIDE: 101.33 MEQ/L
  CHOLESTEROL: 86.33 mg/dL
  CREATININE: 0.27 mg/dL
  GLUCOSE: 219 mg/dL
  LACTATE DEHYDROGENASE: 411.33 u/L
  LIPASE: 10 u/L
  PHOSPHORUS: 14.33 mg/dL
  POTASSIUM: 6.09 MEQ/L
  SODIUM: 142.83 MEQ/L
  TOTAL BILIRUBIN: 0.2 mg/dL
  TOTAL PROTEIN: 6.2 G/DL
  URIC ACID: 2.73 mg/dL
